Measured values: patent publication US10131649B2, “Bicyclic compounds as pest control agents” (BAYER CROPSCIENCE AKTIENGESELLSCHAFT, priority 2014, dated 2018)
Where two headings read alike, the source gives them in different places.

Key:
[1] = log P by HPLC on reversed-phase columns (OECD Guideline 117), [a] acidic pH 2.7, [b] neutral pH 7.8; assay type: physicochemical; conditions: reversed-phase (C18) HPLC column
Protocol: The log P values were determined in accordance with OECD Guideline 117 (EC Directive 92/69/EEC) by HPLC (high-performance liquid chromatography) using reversed-phase (RP) columns (C18), by the following methods:
[a] The LC-MS determination in the acidic range is carried out at pH 2.7 with 0.1% aqueous formic acid and acetonitrile (contains 0.1% formic acid) as eluents; linear gradient from 10% acetonitrile to 95% acetonitrile.
[b] LC-MS determination in the neutral range is effected at pH 7.8 with 0.001 molar aqueous ammonium hydrogencarbonate solution and acetonitrile as eluents; linear gradient from 10% acetonitrile to 95% acetonitrile.
Calibration is carried out using unbranched alkan-2-ones (having 3 to 16 carbon atoms) with known log P values (log P values determined on the basis of the retention times by linear interpolation between two successive alkanones).

[2] = tested on: engorged adult female cattle ticks (Boophilus microplus); assay: Boophilus microplus injection test; assay type: in vivo; conditions: application rate 20 μg/animal, assessed after 7 days, 100% = no tick laid fertile eggs
Protocol: Boophilus microplus—Injection Test
Solvent: dimethyl sulphoxide
To produce a suitable preparation of active compound, 10 mg of active compound are mixed with 0.5 ml of solvent and the concentrate is diluted with solvent to the desired concentration.
1 μl of the active compound solution is injected into the abdomen of 5 engorged adult female cattle ticks (Boophilus microplus). The animals are transferred into dishes and kept in a climate-controlled room.
Efficacy is assessed after 7 days by laying of fertile eggs. Eggs which are not externally visibly fertile are stored in a climate-controlled cabinet until the larvae hatch after about 42 days. An efficacy of 100% means that none of the ticks has laid any fertile eggs; 0% means that all the eggs are fertile.

[3] = tested on: green peach aphid (Myzus persicae); assay: Myzus persicae spray test (Chinese cabbage leaf discs); assay type: in vivo; conditions: foliar, 144 h, read-out: efficacy in %
Protocol: Myzus persicae—Spray Test
Solvent: • 78 parts by weight of acetone • 1.5 parts by weight of dimethylformamide
Emulsifier: alkylaryl polyglycol ether
To produce a suitable preparation of active compound, 1 part by weight of active compound is dissolved using the specified parts by weight of solvent and made up with water containing an emulsifier concentration of 1000 ppm until the desired concentration is attained. To produce further test concentrations, the formulation is diluted with emulsifier-containing water.
Discs of Chinese cabbage leaves (Brassica pekinensis) infested by all stages of the green peach aphid (Myzus persicae) are sprayed with an active compound formulation of the desired concentration.
After 6 days, the efficacy in % is determined. 100% means that all the aphids have been killed; 0% means that no aphids have been killed.

For `Cc1cc(F)c(-c2ccc3nn(-c4cccnc4)cc3c2)cc1[S+]([O-])CC(F)(F)F` (stereo not shown) [Example 52, 5-[2-Fluoro-4-methyl-5-(2,2,2-trifluoroethylsulphinyl)phenyl]-2-(3-pyridyl)indazole], the chromatographic logP ([1]; acidic pH 2.7, read-out: logP[a]) was 2.8, the chromatographic logP ([1]; neutral pH 7.8, read-out: logP[b]) was 2.74 and the “efficacy (laying of fertile eggs)” value [2] was 100%. For the same compound, the pest or weed control at 500 g/ha [3] was 100%.
